Results: PubChem BioAssay AID248 (DTP/NCI, 2004)
Inconclusive results and toxic doses are left out. Cut-off read from the data, not from the text of the source: active = T/C of 150% or more; inactive = T/C below 125%.

Tested on: L1210 leukemia ip in BDF1 mice, survival T/C
Assay: NCI In Vivo Anticancer Drug Screen. Data for tumor model L1210 Leukemia (intraperitoneal) in B6D2F1 (BDF1) mice
Conditions: endpoint: mean survival time, higher = longer survival
Summary of the method: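 Transplanted-tumor mice were given test agent; controls received vehicle only. Survival readings from the two groups were divided (treated over control).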

[1] = dose: 50.0 mg/kg/injection, schedule: Q01DX001 (ip), vehicle: carboxymethylcellulose (CMC)
[2] = dose: 100.0 mg/kg/injection, schedule: Q01DX001 (ip), vehicle: carboxymethylcellulose (CMC)
[3] = dose: 200.0 mg/kg/injection, schedule: Q01DX001 (ip), vehicle: carboxymethylcellulose (CMC)
[4] = dose: 400.0 mg/kg/injection, schedule: Q01DX001 (ip), vehicle: carboxymethylcellulose (CMC)
[5] = dose: 50.0 mg/kg/injection, schedule: Q01DX009 (ip), vehicle: saline with Tween-80
[6] = dose: 100.0 mg/kg/injection, schedule: Q01DX009 (ip), vehicle: saline with Tween-80
[7] = dose: 200.0 mg/kg/injection, schedule: Q01DX009 (ip), vehicle: saline with Tween-80
[8] = dose: 75.0 mg/kg/injection, schedule: Q01DX001 (ip), vehicle: saline
[9] = dose: 100.0 mg/kg/injection, schedule: Q04DX003 (ip), vehicle: saline with Tween-80
[10] = dose: 200.0 mg/kg/injection, schedule: Q04DX003 (ip), vehicle: saline with Tween-80
[11] = dose: 400.0 mg/kg/injection, schedule: Q04DX003 (ip), vehicle: saline with Tween-80
[12] = dose: 100.0 mg/kg/injection, schedule: Q01DX001 (ip), vehicle: saline
[13] = dose: 200.0 mg/kg/injection, schedule: Q01DX001 (ip), vehicle: saline
[14] = dose: 100.0 mg/kg/injection, schedule: Q04DX002 (ip), vehicle: Klucel (hydroxypropylcellulose) (HPC)
[15] = dose: 200.0 mg/kg/injection, schedule: Q04DX002 (ip), vehicle: Klucel (hydroxypropylcellulose) (HPC)
[16] = dose: 400.0 mg/kg/injection, schedule: Q04DX002 (ip), vehicle: Klucel (hydroxypropylcellulose) (HPC)
[17] = dose: 100.0 mg/kg/injection, schedule: Q04DX003 (ip), vehicle: Klucel (hydroxypropylcellulose) (HPC)
[18] = dose: 200.0 mg/kg/injection, schedule: Q04DX003 (ip), vehicle: Klucel (hydroxypropylcellulose) (HPC)

Measured: T/C

NC(=O)C1(Nc2ccc(-c3ccc(Cl)cc3)cc2)CCCC1
inactive: [1] 96 % of control | [2] 93 % of control | [3] 90 % of control | [4] 87 % of control

CC(=O)Nc1ncc([N+](=O)[O-])s1
inactive: [5] 97 % of control | [6] 98 % of control | [7] 104 % of control

O=C(NNC(=S)Nc1cccc(Cl)c1)c1ccncc1
inactive: dose: 25.0 mg/kg/injection, schedule: Q01DX009 (ip), vehicle: Klucel (hydroxypropylcellulose) (HPC) 104 % of control | dose: 50.0 mg/kg/injection, schedule: Q01DX009 (ip), vehicle: Klucel (hydroxypropylcellulose) (HPC) 96 % of control | dose: 100.0 mg/kg/injection, schedule: Q01DX009 (ip), vehicle: Klucel (hydroxypropylcellulose) (HPC) 96 % of control

CCOC(=O)C=C1CCN(C)CC1
inactive: [5] 104 % of control | [8] 97 % of control | [6] 98 % of control | dose: 150.0 mg/kg/injection, schedule: Q01DX001 (ip), vehicle: saline 103 % of control | [7] 97 % of control | dose: 300.0 mg/kg/injection, schedule: Q01DX001 (ip), vehicle: saline 101 % of control

CN1CN(c2ccccc2)C2(CCN(C(=O)/C=C/c3ccc(F)cc3)CC2)C1=O
inactive: dose: 75.0 mg/kg/injection, schedule: Q04DX003 (ip), vehicle: Klucel (hydroxypropylcellulose) (HPC) 92 % of control | dose: 150.0 mg/kg/injection, schedule: Q04DX003 (ip), vehicle: Klucel (hydroxypropylcellulose) (HPC) 88 % of control

O=C(CCN1CCC2CCC(C2)C1)c1ccccc1C(F)(F)F (configuration not stated)
inactive: [1] 101 % of control

Nc1cc(=O)[nH]c(=S)n1-c1ccc(Br)cn1
inactive: [9] 98 % of control | [10] 86 % of control | [11] 104 % of control

NNc1ccc(S(=O)(=O)C(F)F)cc1
inactive: [12] 95 % of control | [13] 92 % of control | dose: 400.0 mg/kg/injection, schedule: Q01DX001 (ip), vehicle: saline 93 % of control

Cc1c(Cl)cccc1NC(=O)Oc1ccc(Cl)cc1
inactive: [6] 92 % of control | [9] 93 % of control | [7] 87 % of control | [10] 97 % of control | dose: 400.0 mg/kg/injection, schedule: Q01DX009 (ip), vehicle: saline with Tween-80 87 % of control | [11] 102 % of control

NC(=O)N/N=C(/Cl)C(=O)NNC(N)=O
inactive: dose: 100.0 mg/kg/injection, schedule: Q04DX002 (ip), vehicle: saline with Tween-80 89 % of control | dose: 200.0 mg/kg/injection, schedule: Q04DX002 (ip), vehicle: saline with Tween-80 89 % of control | dose: 400.0 mg/kg/injection, schedule: Q04DX002 (ip), vehicle: saline with Tween-80 96 % of control

CC(=O)Nc1nc(C)c(CCCNS(=O)(=O)c2ccc(N)cc2)c(=O)[nH]1
inactive: dose: 25.0 mg/kg/injection, schedule: Q01DX001 (ip), vehicle: Klucel (hydroxypropylcellulose) (HPC) 102 % of control | dose: 50.0 mg/kg/injection, schedule: Q01DX001 (ip), vehicle: Klucel (hydroxypropylcellulose) (HPC) 92 % of control | dose: 100.0 mg/kg/injection, schedule: Q01DX001 (ip), vehicle: Klucel (hydroxypropylcellulose) (HPC) 95 % of control

COc1cccc(NC(=S)Nc2ccc(O)cc2)c1
inactive: [14] 99 % of control | [15] 101 % of control | [16] 104 % of control

O=C1C=C(c2ccccc2)C(=O)C=C1c1ccccc1
inactive: dose: 6.25 mg/kg/injection, schedule: Q01DX009 (ip), vehicle: water 94 % of control | dose: 12.5 mg/kg/injection, schedule: Q01DX009 (ip), vehicle: water 86 % of control | dose: 25.0 mg/kg/injection, schedule: Q01DX009 (ip), vehicle: water 103 % of control | dose: 25.0 mg/kg/injection, schedule: Q04DX003 (ip), vehicle: gum acacia 94 % of control | dose: 50.0 mg/kg/injection, schedule: Q01DX009 (ip), vehicle: water 86 % of control | dose: 50.0 mg/kg/injection, schedule: Q04DX003 (ip), vehicle: gum acacia 94 % of control | dose: 100.0 mg/kg/injection, schedule: Q04DX003 (ip), vehicle: gum acacia 105 % of control

CC(C)C(C(N)=O)N1C(=O)C2C3CCC(C3)C2C1=O (configuration not stated)
inactive: dose: 100.0 mg/kg/injection, schedule: Q04DX003 (ip), vehicle: saline 98 % of control | dose: 200.0 mg/kg/injection, schedule: Q04DX003 (ip), vehicle: saline 95 % of control | dose: 400.0 mg/kg/injection, schedule: Q04DX003 (ip), vehicle: saline 107 % of control

O=C(O)c1c[nH]c(=O)c([N+](=O)[O-])c1
inactive: dose: 50.0 mg/kg/injection, schedule: Q04DX003 (ip), vehicle: Klucel (hydroxypropylcellulose) (HPC) 97 % of control | [17] 91 % of control | [18] 92 % of control

COc1ccc(NC2=NCCS2)cc1
inactive: [5] 95 % of control | [6] 95 % of control | [7] 96 % of control

COC1OCC(N=[N+]=[N-])C(OC)C1O (configuration not stated)
inactive: [9] 100 % of control | [10] 100 % of control | [11] 98 % of control

CCCNC(=O)Nc1ccc(C)cc1
inactive: [2] 116 % of control | [3] 94 % of control | [4] 103 % of control

COc1cc2c(cc1OC)C1(CCBr)C3CC4C(=CCOC5CC(=O)N2C1C54)CN3C(=O)Cc1ccccc1 (configuration not stated)
inactive: [8] 107 % of control

CCCCCCCC/C=C\CCCCCCCC(=O)O.[Cu+2]
inactive: [12] 105 % of control | [13] 96 % of control

CCCCCCCCCCS(=O)(=O)CC(=O)O
inactive: [17] 100 % of control | [9] 100 % of control | [18] 90 % of control | [10] 98 % of control

Brc1ccc(Br)c2cnccc12
inactive: dose: 100.0 mg/kg/injection, schedule: Q01DX001 (ip), vehicle: other 93 % of control | dose: 200.0 mg/kg/injection, schedule: Q01DX001 (ip), vehicle: other 106 % of control | dose: 400.0 mg/kg/injection, schedule: Q01DX001 (ip), vehicle: other 104 % of control

O=C1c2ccccc2C(=O)C2CC(c3ccccc3)=C(c3ccccc3)CC12 (configuration not stated)
inactive: [14] 96 % of control | [15] 96 % of control | [16] 100 % of control

CCN(CC)Cc1cc(N)ccc1O
inactive: dose: 100.0 mg/kg/injection, schedule: Q01DX009 (ip), vehicle: saline 106 % of control | dose: 200.0 mg/kg/injection, schedule: Q01DX009 (ip), vehicle: saline 89 % of control
